In patent US20090253755A1, “N-[(PYRIDIN-2-YL) METHOXY] BENZAMIDE DERIVATIVES AND RELATED COMPOUNDS AS FUNGICIDES” (Bayer Cropscience SA, priority 2006, published 2009):

Test system: Alternaria alternata
Assay: Cell test on Alternaria alternata
Type: cell-based
Settings: under similar conditions (cell test, 2 ppm)
Procedure: Cell Test on Alternaria alternata
The growth of Alternaria alternata is performed on PDA medium at 20° C. under black light during 14 days. The PDA medium is prepared by mixing 39 grams of PDA (Merck) in 1 liter of demineralized water.
The medium is sterilized by autoclave 15 minutes at 121° C. After 14 days of growth, the spores of Alternaria alternata are recovered in sterilized water and the concentration of spores adjusted to 10^6 spores per ml.
The compounds is solubilized in DMSO and added to sterile liquid glucose/mycopeptone medium (14.6 g/l of D-glucose, 7.1 g/l of mycological peptone (Oxoid) and 1.4 g/l of yeast extract (Merck)) at a concentration of 2 ppm.
The medium is inoculated with the spore suspension at a concentration of 10^5 spores per ml.
The efficacy of the compounds is assessed by OD measurement at 620 nm after 5 days at 20° C. in comparison with a control.

Row | SMILES | activity
1 | O=C(NOCc1ncc(C(F)(F)F)cc1Cl)c1c(F)cccc1F [Compound 502, N-{[3-chloro-5-(trifluoromethyl)pyridin-2-yl]methoxy}-2,6-difluorobenzamide] | did not show any activity
2 | O=C(NOCc1ncc(C(F)(F)F)cc1Cl)c1c(Cl)cccc1Cl [Compound 501, 2,6-dichloro-N-{[3-chloro-5-(trifluoromethyl)pyridin-2-yl]methoxy}benzamide] | did not show any activity
